Experimental data: US10800754B2, “Heterocyclic amide compound” (TAKEDA PHARMACEUTICAL COMPANY LIMITED, priority 2016, dated 2020)

Target: T1, human PRS protein (Homo sapiens, UniProt P07814)
T1 construct: to construct His-Avi-hEPRS (998-1512) expression plasmid; His tag (N); Avi tag (N); TEV cleavage site (ENLYFQ/GS, encoded by forward primer hEPRS-TEV-NheF) (N); made in house; host or cells: E. coli BL21(DE3)
T1 sequence (P07814 998-1512): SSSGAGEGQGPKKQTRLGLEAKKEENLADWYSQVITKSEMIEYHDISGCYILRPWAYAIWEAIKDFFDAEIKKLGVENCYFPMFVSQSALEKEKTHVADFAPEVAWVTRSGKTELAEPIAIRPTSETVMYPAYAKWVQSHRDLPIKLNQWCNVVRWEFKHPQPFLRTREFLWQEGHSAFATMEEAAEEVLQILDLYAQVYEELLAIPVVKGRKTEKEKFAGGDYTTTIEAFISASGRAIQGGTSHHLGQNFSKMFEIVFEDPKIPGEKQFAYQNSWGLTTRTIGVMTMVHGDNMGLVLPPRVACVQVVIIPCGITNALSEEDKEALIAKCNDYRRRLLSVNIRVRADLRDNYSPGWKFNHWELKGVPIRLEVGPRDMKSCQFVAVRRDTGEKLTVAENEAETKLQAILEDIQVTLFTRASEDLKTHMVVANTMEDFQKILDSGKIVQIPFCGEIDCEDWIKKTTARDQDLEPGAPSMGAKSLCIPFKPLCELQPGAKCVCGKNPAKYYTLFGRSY
Assay: PRS inhibitory activity (ATP/[32P]pyrophosphate exchange enzyme reaction)
Type: biochemical
Conditions: 300 nM test compound; recombinant human PRS (EPRS 998-1512); read-out: inhibitory rate (%) of PRS
Experimental: The PRS inhibitory activity of the compounds of the present invention was evaluated by the following method.
An expression plasmid of Catalytic Domain of human EPRS was obtained by PCR using human skeletal muscle cDNA Library (Takara Bio Inc.) as a template and 2 kinds of Primers 5′-[…]-3′ (hEPRS-TEV-NheF) (SEQ ID NO: 1) and 5′-[…]-3′ (hEPRS-St-Not-R) (SEQ ID NO: 2). PCR was performed using PrimeStar GXL DNA Polymerase (Takara Bio Inc.) and included (1) 98° C., 1 min, (2) cycles of 98° C., 10 sec, 65° C., 10 sec, 72° C., 1 min, and (3) reaction at 72° C., 1 min. This was cleaved with Nhe I and Not I (Takara Bio Inc.) and inserted using Ligation High (TOYOBO CO., LTD.) into the Nhe I/Not I site of pET21a (Novagen) with His-Avitag inserted thereinto. This was introduced into ECOS JM109 (NIPPON GENE CO., LTD.) to construct His-Avi-hEPRS (998-1512) expression plasmid.
Recombinant human PRS protein was prepared by transforming the His-Avi-hEPRS (998-1512) expression plasmid prepared above into ECOS Competent E. coli BL21(DE3) (NIPPON GENE CO., LTD.). Escherichia coli obtained by transformation was inoculated into 300 mL of LB medium (1% peptone, 0.5% yeast extract, 0.5% sodium chloride, 0.01% ampicillin) and cultured at 30° C. for 16 hr. The obtained culture medium was transferred into a jar culture tank charged with 6 L of the main fermentation medium (0.3% potassium dihydrogen phosphate, 0.6% disodium hydrogen phosphate, 0.1% ammonium chloride, 0.05% sodium chloride, 0.024% magnesium sulfate, 0.02% NEWPOL LB-625, 1.5% sorbitol, 1.5% casamino acid, 0.5% yeast extract, 0.01% ampicillin) and culturing was started at 37° C., quantity of airflow 5 L/min, stirring rotating speed 400 rpm. At the time point when the turbidity of the culture medium reached about 550 Klett units, the culture temperature was lowered to 16° C., isopropyl-β-D-thiogalactopyranoside (IPTG) was added to the final concentration 0.1 mM, and culturing was performed for another 16 hr to induce expression of human PRS. After completion of culturing, the culture medium was centrifuged at 5,000 rpm for 10 min. The obtained human PRS expressing Escherichia coli was suspended in a buffer containing 50 mM Tris-HCl (pH 8.0), 150 mM NaCl, 1 mM DTT, 5 U/ml Benzonase, 20 mM Imidazole and sonicated using Sonifier (BRANSON). The homogenate was centrifuged (33,000×G, 60 min, Beckman Coulter), the obtained supernatant was subjected to adsorption by passage through Ni-NTA Superflow (QIAGEN) column equilibrated in advance with 50 mM Tris-HCl (pH 8.0), 300 mM NaCl, 1 mM DTT, and elution was performed with a buffer containing 50 mM Tris-HCl (pH 8.0), 300 mM NaCl, 1 mM DTT, 250 mM Imidazole. Furthermore, gel filtration was performed using […] equilibrated in advance with a buffer containing 50 mM Tris-HCl (pH 8.0), 150 mM NaCl, 1 mM DTT, 10% glycerol to give purified human PRS protein. The protein concentration was measured using BCA Protein Assay Kit (PIERCE) and BSA as the standard.
A test compound was dissolved in 5 μL of an assay buffer (50 mM Tris-HCl (pH 7.5), 20 mM KCl, 1 mM DTT, 0.01% Tween 20) and incubated for 60 min with 5 μL of 40 nM human PRS protein dissolved in the assay buffer containing 40 mM MgCl2. An enzyme reaction of the human PRS protein was started by adding 10 μL of a substrate solution containing 300 μM ATP, 160 μM L-Proline, 400 μM pyrophosphate, [^32P]pyrophosphate (PerkinElmer, Waltham, Mass.) prepared to 1 MBq/mL. After incubation at room temperature for 30 min, the reaction was discontinued by adding 50 μL of discontinuation/washing solution (1M HCl, 200 mM sodium pyrophosphate) to the reaction mixture. The reaction solution was transferred to a filter plate (Merck Millipore, Billerica, Mass.) previously added with 200 μL of charcoal solution (0.5% HCl solution containing 10% charcoal (w/v)). […]

Row | SMILES | inhibition at 0.3 µM
1 | N#C[C@@]1(C2CC2)CCN(c2ccnc(NC(=O)Cc3cccc4ccccc34)c2)C1=O [Example 3, N-(4-((3S)-3-cyano-3-cyclopropyl-2-oxopyrrolidin-1-yl)pyridin-2-yl)-2-(1-naphthyl)acetamide] | 93%
2 | N#C[C@@]1(C2CC2)CCN(c2ccnc(NC(=O)Cc3cccc(-c4ccccc4)c3)c2)C1=O [Example 9, 2-(biphenyl-3-yl)-N-(4-((3S)-3-cyano-3-cyclopropyl-2-oxopyrrolidin-1-yl)pyridin-2-yl)acetamide] | 94%
3 | N#C[C@@]1(C2CC2)CCN(c2ccnc(NC(=O)Cc3ccccc3F)c2)C1=O [Example 14, N-(4-((3S)-3-cyano-3-cyclopropyl-2-oxopyrrolidin-1-yl)pyridin-2-yl)-2-(2-fluorophenyl)acetamide] | 70%
4 | N#C[C@@]1(C2CC2)CCN(c2ccnc(NC(=O)Cc3cccs3)c2)C1=O [Example 16, N-(4-((3S)-3-cyano-3-cyclopropyl-2-oxopyrrolidin-1-yl)pyridin-2-yl)-2-(2-thienyl)acetamide] | 88%
5 | C=CC[C@]1(C#N)CCN(c2ccnc(NC(=O)Cc3cccc(-c4cnn(C)c4)c3)c2)C1=O [Example 22, N-(4-((3R)-3-allyl-3-cyano-2-oxopyrrolidin-1-yl)pyridin-2-yl)-2-(3-(1-methyl-1H-pyrazol-4-yl)phenyl)acetamide] | 87%
6 | C=CC[C@]1(C#N)CCN(c2ccnc(NC(=O)Cc3cccc(-c4ccsc4)c3)c2)C1=O [Example 24, N-(4-((3R)-3-allyl-3-cyano-2-oxopyrrolidin-1-yl)pyridin-2-yl)-2-(3-(3-thienyl)phenyl)acetamide] | 71%
7 | C=CC[C@]1(C#N)CCN(c2ccnc(NC(=O)Cc3cccc(-c4ccncc4)c3)c2)C1=O [Example 25, N-(4-((3R)-3-allyl-3-cyano-2-oxopyrrolidin-1-yl)pyridin-2-yl)-2-(3-(pyridin-4-yl)phenyl)acetamide] | 61%
8 | N#C[C@@]1(C2CC2)CCN(c2ccnc(NC(=O)Cc3csc4ccccc34)c2)C1=O [Example 28, 2-(1-benzothiophen-3-yl)-N-(4-((3S)-3-cyano-3-cyclopropyl-2-oxopyrrolidin-1-yl)pyridin-2-yl)acetamide] | 94%
9 | N#CC1(C2CCC2)CCN(c2ccnc(NC(=O)Cc3cccc4ccccc34)c2)C1=O (stereo not shown) [Example 33, N-(4-(3-cyano-3-cyclobutyl-2-oxopyrrolidin-1-yl)pyridin-2-yl)-2-(1-naphthyl)acetamide] | 80%
10 | N#C[C@@]1(C2CC2)CCN(c2ccnc(NC(=O)Cc3cccc(-c4cccnc4)c3)c2)C1=O [Example 34, N-(4-((3S)-3-cyano-3-cyclopropyl-2-oxopyrrolidin-1-yl)pyridin-2-yl)-2-(3-(pyridin-3-yl)phenyl)acetamide] | 97%
11 | N#Cc1ccc(-c2cccc(CC(=O)Nc3cc(N4CC[C@@](C#N)(C5CC5)C4=O)ccn3)c2)s1 [Example 36, N-(4-((3S)-3-cyano-3-cyclopropyl-2-oxopyrrolidin-1-yl)pyridin-2-yl)-2-(3-(5-cyano-2-thienyl)phenyl)acetamide] | 96%
12 | Cn1cc(-c2cccc(CC(=O)Nc3cc(N4CCC(C)(C)C4=O)ccn3)c2)cn1 [Example 43, N-(4-(3,3-dimethyl-2-oxopyrrolidin-1-yl)pyridin-2-yl)-2-(3-(1-methyl-1H-pyrazol-4-yl)phenyl)acetamide] | 88%
13 | Cc1cc(N2CCC(C)(C)C2=O)cc(NC(=O)Cc2cccc(-c3cnn(C)c3)c2)n1 [Example 49, N-(4-(3,3-dimethyl-2-oxopyrrolidin-1-yl)-6-methylpyridin-2-yl)-2-(3-(1-methyl-1H-pyrazol-4-yl)phenyl)acetamide] | 83%

Other lines, results leading:

Row | inhibition at 0.3 µM | SMILES
14 | 84% | N#C[C@@]1(C2CC2)CCN(c2ccnc(NC(=O)Cc3cccc(Cl)c3)c2)C1=O [Example 1, 2-(3-chlorophenyl)-N-(4-((3S)-3-cyano-3-cyclopropyl-2-oxopyrrolidin-1-yl)pyridin-2-yl)acetamide]
15 | 85% | N#C[C@@]1(C2CC2)CCN(c2ccnc(NC(=O)Cc3ccccc3)c2)C1=O [Example 2, N-(4-((3S)-3-cyano-3-cyclopropyl-2-oxopyrrolidin-1-yl)pyridin-2-yl)-2-phenylacetamide]
16 | 62% | N#C[C@@]1(C2CC2)CCN(c2ccnc(NC(=O)Cc3ccccc3Cl)c2)C1=O [Example 5, 2-(2-chlorophenyl)-N-(4-((3S)-3-cyano-3-cyclopropyl-2-oxopyrrolidin-1-yl)pyridin-2-yl)acetamide]
17 | 88% | COc1cccc(CC(=O)Nc2cc(N3CC[C@@](C#N)(C4CC4)C3=O)ccn2)c1 [Example 10, N-(4-((3S)-3-cyano-3-cyclopropyl-2-oxopyrrolidin-1-yl)pyridin-2-yl)-2-(3-methoxyphenyl)acetamide]
18 | 85% | Cc1cccc(CC(=O)Nc2cc(N3CC[C@@](C#N)(C4CC4)C3=O)ccn2)c1 [Example 11, N-(4-((3S)-3-cyano-3-cyclopropyl-2-oxopyrrolidin-1-yl)pyridin-2-yl)-2-(3-methylphenyl)acetamide]
19 | 89% | N#C[C@@]1(C2CC2)CCN(c2ccnc(NC(=O)Cc3cccc(F)c3)c2)C1=O [Example 13, N-(4-((3S)-3-cyano-3-cyclopropyl-2-oxopyrrolidin-1-yl)pyridin-2-yl)-2-(3-fluorophenyl)acetamide]
20 | 84% | N#C[C@@]1(C2CC2)CCN(c2ccnc(NC(=O)Cc3ccsc3)c2)C1=O [Example 15, N-(4-((3S)-3-cyano-3-cyclopropyl-2-oxopyrrolidin-1-yl)pyridin-2-yl)-2-(3-thienyl)acetamide]
21 | 83% | N#C[C@@]1(C2CC2)CCN(c2ccnc(NC(=O)Cc3ccc(Cl)s3)c2)C1=O [Example 17, 2-(5-chloro-2-thienyl)-N-(4-((3S)-3-cyano-3-cyclopropyl-2-oxopyrrolidin-1-yl)pyridin-2-yl)acetamide]
22 | 89% | N#C[C@@]1(C2CC2)CCN(c2ccnc(NC(=O)Cc3cccc(Br)c3)c2)C1=O [Example 21, 2-(3-bromophenyl)-N-(4-((3S)-3-cyano-3-cyclopropyl-2-oxopyrrolidin-1-yl)pyridin-2-yl)acetamide]
